Read-outs that look alike come from different tables or passages of the source. Square brackets hold non-standard residues; d marks the D form. Ends that are not written are not given here. Peptide text beside a SMILES is read from it. * marks the point of attachment. 1Nal = N[C@@H](Cc1cccc2ccccc12)C(=O)O; Palmitoyl = CCCCCCCCCCCCCCCC(=O)*; Myristoyl = CCCCCCCCCCCCCC(=O)*; X1 = CONC(=O)[C@H](Cc1ccccc1)N*; Nle = CCCC[C@H](N)C(=O)O
Tests used:
rat PrRP receptor = molecular target: T1, rat PrRP receptor (Rattus norvegicus, UniProt Q64121); assay: Competitive binding in RC-4B/C rat pituitary cells (125I-rat PrRP31); details: for % of PrRP31, RC-4B/C rat pituitary cells: affinity relative to PrRP31
T1 construct: host or cells: RC-4B/C rat pituitary cell line
T1 sequence (Q64121 1-370): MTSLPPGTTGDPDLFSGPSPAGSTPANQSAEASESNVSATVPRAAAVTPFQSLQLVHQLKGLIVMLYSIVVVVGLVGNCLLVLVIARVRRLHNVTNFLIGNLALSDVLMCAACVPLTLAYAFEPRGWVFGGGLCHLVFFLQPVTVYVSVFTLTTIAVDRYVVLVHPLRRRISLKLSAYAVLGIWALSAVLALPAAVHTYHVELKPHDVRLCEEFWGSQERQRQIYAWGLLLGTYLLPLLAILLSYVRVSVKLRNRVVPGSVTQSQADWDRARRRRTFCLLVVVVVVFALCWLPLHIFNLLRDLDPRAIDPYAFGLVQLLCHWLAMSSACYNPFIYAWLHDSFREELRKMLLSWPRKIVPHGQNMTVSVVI
Experimental: (§1) Competitive binding experiments were performed according to Motulsky and Neubig (Motulsky, A., et al., “Analyzing radioligand binding data,” Curr Protoc Neurosci, Chapter 7, Unit 7.5, 2002). Binding experiments were conducted with rat pituitary cells, and with Chinese Hamster Ovary (CHO) cells as follows:
The rat pituitary cell line RC-4B/C (ATCC, Manassas, USA) was grown on 24-well plates which had their bottom coated with polyethyleneimine. The cells were grown to the optimal density of 300-450 thousand cells per well. The following agents were used for the experiment: binding buffer (20 mmol·l^−1 HEPES, Ph 7.4; 118 mmol·l^−1 NaCl, 4.7 mmol·l^−1 KCl, 5 mmol·l^−1 MgCl2, 5.5 mmol·l^−1 glucose, 1 mg/ml BSA, 0.1 BPTI), unlabeled analogs of PrRP (i.e. the analog being tested) at a final concentration between 10^−11 to 10^−4 mol·l^−1, and rat ^125I-PrRP31 (labeled with radioactive Iodine-125) at a final concentration of […] (Maixnerová et al., 2011).
(§2) Plates were incubated for 60 minutes at room temperature. After incubation, the cells were solubilized in 0.1 mol/l solution of NaOH, and the radioactivity bound to the cells was counted using a γ-counter. The experiments were performed in duplicate, and repeated at least three times.
(§3) Graph Pad Prism Software (San Diego, Calif., USA) was used for evaluating the competitive binding experiments. Nonlinear regression was performed using a onsite binding model.

[1] = molecular target: T2, human PrRP receptor GPR10 (Homo sapiens, UniProt P49683); assay: Competitive binding in CHO cells transfected with human GPR10 (human 125I-PrRP31); details: for % of PrRP31, GPR10 human receptor transfected in CHO cells: affinity relative to PrRP31
T2 construct: host or cells: CHO cells
T2 sequence (P49683 1-370): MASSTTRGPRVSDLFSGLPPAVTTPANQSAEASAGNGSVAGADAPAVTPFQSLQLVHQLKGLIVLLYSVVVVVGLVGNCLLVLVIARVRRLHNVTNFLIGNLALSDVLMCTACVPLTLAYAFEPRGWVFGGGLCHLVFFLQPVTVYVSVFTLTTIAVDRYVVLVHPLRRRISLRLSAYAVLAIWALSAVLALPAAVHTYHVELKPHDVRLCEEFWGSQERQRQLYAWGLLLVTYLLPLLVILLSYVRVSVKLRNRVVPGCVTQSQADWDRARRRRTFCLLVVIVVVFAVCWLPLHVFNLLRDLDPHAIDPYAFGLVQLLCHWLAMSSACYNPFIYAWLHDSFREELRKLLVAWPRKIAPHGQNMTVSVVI
Experimental: as §1
CHO cells transfected with human PrRP receptor GPR10 (Perkin Elmer, USA) were grown on 24-well plates coated with polyethyleneimine. The cells were grown to the optimal density of 40-80 thousand cells per well. The following agents were used for the experiment: binding buffer (25 mmol·l^−1 Tris, pH 7.4; 118 mmol·l^−1 NaCl, 10 mmol·l^−1 MgCl2, 10 mmol·l^−1 CaCl2, 5.5 mmol·l^−1 glucose, 0.5 mg/ml BSA), unlabeled analogs of PrRP (i.e. the analog being tested) at a final concentration between 10^−11 to 10^−4 mol·l^−1, and radiolabeled human ^125I-PrRP31 at a final concentration of 5×10^−11 mol·l^−1.
as §2, §3

[2] = CHO cells, human 125I-PrRP31, read-out: Ki, GPR10 human receptor transfected in CHO cells

Row | Compound | % of PrRP31, RC-4B/C rat pituitary cells (rat PrRP receptor) | % of PrRP31, GPR10 human receptor transfected in CHO cells [1] | further results
1 | CCCC[C@H](NC(=O)[C@H](CO)NC(=O)[C@H](Cc1c[nH]cn1)NC(=O)[C@H](CCC(N)=O)NC(=O)[C@H](Cc1c[nH]cn1)NC(=O)[C@H](C)NC(=O)[C@H](CCCNC(=N)N)NC(=O)[C@@H](N)CO)C(=O)N[C@@H](CCC(=O)O)C(=O)N[C@H](C(=O)N[C@@H](CCCNC(=N)N)C(=O)N[C@H](C(=O)N1CCC[C@H]1C(=O)N[C@@H](CC(=O)O)C(=O)N[C@H](C(=O)N[C@@H](CC(N)=O)C(=O)N1CCC[C@H]1C(=O)N[C@@H](C)C(=O)N[C@@H](Cc1c[nH]c2ccccc12)C(=O)N[C@@H](Cc1ccc(O)cc1)C(=O)N[C@H](C(=O)NCC(=O)N[C@@H](CCCNC(=N)N)C(=O)NCC(=O)N[C@H](C(=O)N[C@@H](CCCNC(=N)N)C(=O)N1CCC[C@H]1C(=O)N[C@H](C(=O)NCC(=O)N[C@@H](CCCNC(=N)N)C(=O)N[C@@H](Cc1cccc2ccccc12)C(N)=O)C(C)C)[C@@H](C)CC)[C@@H](C)O)[C@@H](C)CC)[C@@H](C)O)[C@@H](C)O [Analog 10] (H-SRAHQHS[Nle]ETRTPDINPAWYTGRGIRPVGR[1Nal]-NH2) | 4.8% | 11% | 
2 | CCCCCCCCCCCCCC(=O)N[C@@H](CO)C(=O)N[C@@H](CCCNC(=N)N)C(=O)N[C@@H](C)C(=O)N[C@@H](Cc1c[nH]cn1)C(=O)N[C@@H](CCC(N)=O)C(=O)N[C@@H](Cc1c[nH]cn1)C(=O)N[C@@H](CO)C(=O)N[C@@H](CCCC)C(=O)N[C@@H](CCC(=O)O)C(=O)N[C@H](C(=O)N[C@@H](CCCNC(=N)N)C(=O)N[C@H](C(=O)N1CCC[C@H]1C(=O)N[C@@H](CC(=O)O)C(=O)N[C@H](C(=O)N[C@@H](CC(N)=O)C(=O)N1CCC[C@H]1C(=O)N[C@@H](C)C(=O)N[C@@H](Cc1c[nH]c2ccccc12)C(=O)N[C@@H](Cc1ccc(O)cc1)C(=O)N[C@H](C(=O)NCC(=O)N[C@@H](CCCNC(=N)N)C(=O)NCC(=O)N[C@H](C(=O)N[C@@H](CCCNC(=N)N)C(=O)N1CCC[C@H]1C(=O)N[C@H](C(=O)NCC(=O)N[C@@H](CCCNC(=N)N)C(=O)N[C@@H](Cc1cccc2ccccc12)C(N)=O)C(C)C)[C@@H](C)CC)[C@@H](C)O)[C@@H](C)CC)[C@@H](C)O)[C@@H](C)O [Analog 11] (Myristoyl-SRAHQHS[Nle]ETRTPDINPAWYTGRGIRPVGR[1Nal]-NH2) | 124% | 292% | 
3 | CCCC[C@H](NC(=O)CNC(=O)[C@H](CCCNC(=N)N)NC(=O)[C@@H]1CCCN1C(=O)[C@H](Cc1ccc(O)cc1)NC(=O)[C@H](Cc1c[nH]c2ccccc12)NC(=O)[C@H](Cc1c[nH]cn1)NC(=O)[C@@H](NC(=O)[C@H](CC(=O)O)NC(=O)[C@H](C)NC(=O)[C@@H]1CCCN1C(=O)[C@H](CCCNC(=N)N)NC(=O)[C@H](CCC(N)=O)NC(=O)[C@H](Cc1c[nH]cn1)NC(=O)[C@@H](N)CO)[C@@H](C)O)C(=O)N[C@@H](Cc1ccccc1)C(=O)N1CCC[C@H]1C(=O)N[C@H](C(=O)N[C@H](C(=O)NCC(=O)N[C@@H](CCCNC(=N)N)C(=O)N[C@H](C(=O)N[C@H](C(=O)N[C@@H](C)C(=O)N[C@@H](CCCNC(=N)N)C(=O)N[C@@H](CC(N)=O)C(=O)NCC(=O)N[C@@H](CCC(=O)O)C(=O)N[C@H](C(=O)N[C@@H](CO)C(=O)N[C@@H](CCCNC(=N)N)C(=O)O)C(C)C)[C@@H](C)O)[C@@H](C)CC)[C@@H](C)CC)[C@@H](C)O [Analog 19] (H-SHQRPADTHWYPRG[Nle]FPTIGRITARNGEVSR-OH; N-terminus and C-terminus assumed) | 0.00004% |  | Ki (rat PrRP receptor; RC-4B/C cells, displacement of 125I-rat PrRP31, read-out: Ki, RC-4B/C rat pituitary cells ^25I-rat PrRP31): 1320 ± 1260 µM
4 | CCCCCCCCCCCCCCCC(=O)N[C@@H](CO)C(=O)N[C@@H](CCCNC(=N)N)C(=O)N[C@H](C(=O)N[C@@H](Cc1c[nH]cn1)C(=O)N[C@@H](CCCNC(=N)N)C(=O)N[C@@H](Cc1c[nH]cn1)C(=O)N[C@@H](CO)C(=O)N[C@@H](CCSC)C(=O)N[C@@H](CCC(=O)O)C(=O)N[C@H](C(=O)N[C@@H](CCCNC(=N)N)C(=O)N[C@H](C(=O)N1CCC[C@H]1C(=O)N[C@@H](CC(=O)O)C(=O)N[C@H](C(=O)N[C@@H](CC(N)=O)C(=O)N1CCC[C@H]1C(=O)N[C@@H](C)C(=O)N[C@@H](Cc1c[nH]c2ccccc12)C(=O)N[C@@H](Cc1ccc(O)cc1)C(=O)N[C@@H](C)C(=O)N[C@@H](CO)C(=O)N[C@@H](CCCNC(=N)N)C(=O)NCC(=O)N[C@H](C(=O)N[C@@H](CCCNC(=N)N)C(=O)N1CCC[C@H]1C(=O)N[C@H](C(=O)NCC(=O)N[C@@H](CCCNC(=N)N)C(=O)N[C@@H](Cc1ccccc1)C(=O)NOC)C(C)C)[C@@H](C)CC)[C@@H](C)CC)[C@@H](C)O)[C@@H](C)CC)[C@@H](C)O [Analog 45] (Palmitoyl-SRTHRHSMEIRTPDINPAWYASRGIRPVGR-X1) |  | 92% | 
5 | CCCCCCCCCCCCCCCC(=O)NCCCC[C@H](NC(=O)[C@@H](NC(=O)[C@H](CC(=O)O)NC(=O)[C@@H]1CCCN1C(=O)[C@@H](N)[C@@H](C)O)[C@@H](C)CC)C(=O)N1CCC[C@H]1C(=O)N[C@@H](C)C(=O)N[C@@H](Cc1c[nH]c2ccccc12)C(=O)N[C@@H](Cc1ccc(O)cc1)C(=O)N[C@@H](C)C(=O)N[C@@H](CO)C(=O)N[C@@H](CCCNC(=N)N)C(=O)NCC(=O)N[C@H](C(=O)N[C@@H](CCCNC(=N)N)C(=O)N1CCC[C@H]1C(=O)N[C@H](C(=O)NCC(=O)N[C@@H](CCCNC(=N)N)C(=O)N[C@@H](Cc1ccccc1)C(N)=O)C(C)C)[C@@H](C)CC [Analog 49] (H-TPDIK(Palmitoyl)PAWYASRGIRPVGRF-NH2) |  | 90% | Ki [1, 2]: 0.00434 ± 0.00045 µM
6 | CCCCCCCCCCCCCCCC(=O)NCCCC[C@H](NC(=O)[C@@H]1CCCN1C(=O)[C@H](CC(N)=O)NC(=O)[C@@H](NC(=O)[C@H](CC(=O)O)NC(=O)[C@@H]1CCCN1C(=O)[C@@H](N)[C@@H](C)O)[C@@H](C)CC)C(=O)N[C@@H](Cc1c[nH]c2ccccc12)C(=O)N[C@@H](Cc1ccc(O)cc1)C(=O)N[C@@H](C)C(=O)N[C@@H](CO)C(=O)N[C@@H](CCCNC(=N)N)C(=O)NCC(=O)N[C@H](C(=O)N[C@@H](CCCNC(=N)N)C(=O)N1CCC[C@H]1C(=O)N[C@H](C(=O)NCC(=O)N[C@@H](CCCNC(=N)N)C(=O)N[C@@H](Cc1ccccc1)C(N)=O)C(C)C)[C@@H](C)CC [Analog 50] (H-TPDINPK(Palmitoyl)WYASRGIRPVGRF-NH2) |  | 69% | Ki [1, 2]: 0.00564 ± 0.00035 µM
7 | SRAHQHSMETRTPDINPAWYTGRGIRPVGRF-NH2 [Rat PrRP31, reference compound] |  |  | Ki [1]: 0.00389 ± 0.00112 µM
